From publication PMC10357929 (Journal of the American Chemical Society, 2023)
Entries after “also recorded” stand apart in the source; their conditions may differ.

How the values were obtained:
p53Y220C [1] = target: T1, p53Y220C (Homo sapiens, UniProt P04637, Y220C); details: cited from earlier work
[2] = system: other bromodomain-containing proteins; assay: BromoMelt profiling against other bromodomain-containing proteins; details: 10 μM, duplicates
NUGC-3 cells = assay: Clonogenic assay, NUGC-3; assay type: cell-based; details: 1, 3, 10 μM, 14 days; compared to PK9328 and compound 33
p53-target genes [3] = assay: RT-qPCR of p53-target genes in NCI-H1299 p53Y220C stable cells; assay type: cell-based; details: 10 μM, 24 h; for increase in p21 mRNA expression: relative to DMSO
NCI-H1299 p53-null cells [4] = assay: Cell viability assay; assay type: cell-based; details: 72 h
p53-target genes [5] = assay: RNA-seq in NCI-H1299 p53-null and p53Y220C cells; assay type: cell-based, human; details: 10 μM, 24 h
[6] = system: NUGC-3 (p53Y220C/+) cells; details: 72 h
BxPC3 cells = assay: Clonogenic assay, BxPC3; assay type: cell-based; details: 1, 3, 10 μM, 14 days; compared to PK9328 and compound 33
NCI-H1299 p53-null cells [7] = assay: Western blot of p53K382ac level in NCI-H1299 p53-null cells; assay type: cell-based; details: 0, 1, 3, 10 μM, 24 h
p53Y220C and p300 = p53Y220C and p300 (Homo sapiens, UniProt P04637+Q09472, Y220C); assay: p53-FLAG pull-down of p53Y220C-p300 ternary complex; assay type: cell-based; details: 24 h
BxPC3 (p53Y220C/−) cells = details: for GI50: 72 h
[8] = system: p53 WT U-2OS cancer cells; assay: Cell viability assay; assay type: cell-based; details: 72 h; for inhibition of cell growth at the highest concentration tested: 10 μM
p53Y220C [9] = target: T1, p53Y220C; assay: Western blot of p53K382ac level in NUGC-3 cells; assay type: cell-based; details: 10 μM, 24 h
p53Y220C [10] = target: T1, p53Y220C; assay: Western blot / FLAG-IP of p53K382ac level in NCI-H1299; assay type: cell-based
PNT2 cells = assay: Cytotoxicity in normal prostate cell line PNT2; assay type: cell-based; details: read-out: GI50 (cytotoxicity)
p53Y220C [11] = target: T1, p53Y220C; assay: Western blot of p53K382ac level in BxPC3 cells; assay type: cell-based; details: 10 μM, 24 h
[12] = p300-siRNA 72 h, then compound 72 h

## CCn1c2ccc(CNC)cc2c2ccc(-c3cscn3)cc21 [PK9323]
p53Y220C [1]
  stabilizes p53Y220C with a melting temperature (Tm): 3.1 °C

## CCn1c2ccc(CNCCOCCOCCOCCn3cc(COc4ccc(CCc5nc6cc(-c7c(C)noc7C)ccc6n5CCN5CCOCC5)cc4F)nn3)cc2c2ccc(-c3cc(C)cs3)cc21 [MS78]
[2]
  selectivity over a panel of other BRD-containing proteins: selective for the CBP/p300 BRD
NUGC-3 cells
  clonogenicity: marked reduction in clonogenicity
p53-target genes [3]
  effect on TIGAR, BAX, and PUMA (BBC3) genes: little or modest effect
  expression of p21 (CDKN1A) and Mdm2 genes: less upregulation
  increase in p21 mRNA expression: 8 fold
NCI-H1299 p53-null cells [4]
  cell growth inhibition: did not induce any significant cell growth inhibition
p53-target genes [5]
  expression of BAX, PUMA (BBC3), and NOXA (PMAIP1) genes: no significant upregulation
  expression of DDR genes such as ATM, ATR, and CHEK1/2: downregulation
  expression of heat shock protein genes such as HSPA5, HSP40 (DNAJB1), HSP1A1/B: upregulation
[6]
  GI50: 2.7 ± 0.5 µM
BxPC3 cells
  clonogenicity: marked reduction in clonogenicity
NCI-H1299 p53-null cells [7]
  K382 acetylation: did not induce K382 acetylation
p53Y220C and p300; NCI-H1299 p53-null cells
  p53-p300 interaction (FLAG pull-down): no interaction was observed
p53Y220C and p300; NCI-H1299 p53Y220C cells
  p53Y220C-p300 interaction (FLAG pull-down): induced an interaction between p53Y220C and p300
BxPC3 (p53Y220C/−) cells
  GI50: 3.3 ± 1 µM
BxPC3 (p53Y220C/−) cells; GI50 in BxPC3 and NUGC-3
  higher potency compared to the parent compound PK9328: about 4 fold
[8]
  inhibition of cell growth at the highest concentration tested: 30–40%
  GI50: > 10 µM
p53Y220C [9]
  increase in the p53K382ac level: about 4 fold
NCI-H1299 p53Y220C cells; 72 h
  cell growth inhibition: concentration-dependently inhibited the cell growth
NCI-H1299 p53Y220C cells; [12]
  antiproliferative effect after knockdown of p300: abolished the antiproliferative effect
p53Y220C [10]; 0, 1, 3, 10 μM, 24 h, NCI-H1299 p53Y220C
  K382 acetylation: significantly induced K382 acetylation
p53Y220C [10]; 10 μM, 6 h
  increase in p53K382ac level: about 2 fold
p53Y220C [10]; 10 μM, 24 h
  increase in p53K382ac level: about 4 fold
  p53K382ac induction compared to compound 7: about 2 fold
p53Y220C [10]; p300 knockdown, NCI-H1299 (p53Y220C)
  p53Y220C K382 acetylation in p300 siRNA-treated cells: significantly diminished; also recorded: abolished
p53Y220C [10]; read-out: ACE50 (the concentration at which 50% of p53Y220C is acetylated), 24 h, acetylation level at 10 μM MS78 as the maximum response
  EC50: 1.87 ± 0.3 µM
PNT2 cells
  GI50: > 10 µM
p53Y220C [11]
  increase in the p53K382ac level: about 4 fold

## CCn1c2ccc(CNC)cc2c2ccc(-c3cc(C)cs3)cc21 [PK9328, reference compound]
p53-target genes [3]
  effect on TIGAR, BAX, and PUMA (BBC3) genes: little or modest effect
  expression of p21 (CDKN1A) and Mdm2 genes: upregulated
  increase in p21 mRNA expression: 12 fold
NCI-H1299 p53-null cells [4]
  cell growth inhibition: did not induce any significant cell growth inhibition
[6]
  GI50: 12.6 ± 1.9 µM
NCI-H1299 p53-null cells [7]
  K382 acetylation: did not significantly induce K382 acetylation
BxPC3 (p53Y220C/−) cells
  GI50: 13.9 ± 2.4 µM
[8]
  inhibition of cell growth at the highest concentration tested: 30–40%
  GI50: > 10 µM
NCI-H1299 p53Y220C cells; [12]
  reduction in the cell growth in p300-siRNA-treated cells: about 50%
PNT2 cells
  GI50: > 10 µM
